For eight molecules, GI50 and TGI results are on record in PubChem BioAssay (NCI).

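Dose response: 5 concentrations. Exposure: 48 h. Format: 96-well plates. Endpoint: linear interpolation; highest concentration if not reached. GI50 = concentration required for 50% inhibition of growth. Definition used: TGI = concentration required for complete inhibition of growth.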

Some test systems named below: MOLT-4 leukemia; 786-0 renal; ACHN renal; M14 melanoma; NCI/ADR-RES ovarian; IGROV1 ovarian; SK-MEL-2 melanoma; RPMI-8226 leukemia; T-47D breast; SN12C renal.
Common to all, as to assay: NCI anticancer screen, dose series, 48 h

Turning to `O=C1C2C(C(=O)[N]1[Hg][c]1ccccc1)C1(Cl)C(Cl)=C(Cl)C2(Cl)C1(Cl)Cl` (centres undefined), the GI50 in the assay on MOLT-4 leukemia was 1.88 µM; in the assay on 786-0 renal, 1.85 µM; in the assay with ACHN renal it was 1.69 µM; with M14 melanoma, 1.16 µM; with NCI/ADR-RES ovarian, 2.69 µM; in the assay with IGROV1 ovarian, 1.2 µM. For the same molecule, the GI50 is 1.49 µM in the assay on SK-MEL-2 melanoma, 1.64 µM in the assay on RPMI-8226 leukemia and 0.225 µM in the assay on T-47D breast. Besides, the TGI is 8.76 µM in the assay with MOLT-4 leukemia; 3.48 µM in the assay on 786-0 renal; 3.07 µM in the assay with ACHN renal; 2.43 µM with M14 melanoma; 8.97 µM in the assay on NCI/ADR-RES ovarian; 3.63 µM in the assay with IGROV1 ovarian. Besides, the TGI is 3.15 µM in the assay with SK-MEL-2 melanoma, 5.94 µM with RPMI-8226 leukemia and 1.58 µM in the assay with T-47D breast.

As for `c1ccc(Cn2cc3c(c2)-c2oncc2CC3)cc1`, the GI50 in the assay on MOLT-4 leukemia is 0.394 µM; with 786-0 renal, 1.86 µM; in the assay with ACHN renal, 7.74 µM; in the assay with M14 melanoma, 0.528 µM; in the assay on NCI/ADR-RES ovarian, 0.554 µM; in the assay with IGROV1 ovarian, 1.27 µM. In addition, the GI50 is 5.29 µM in the assay with SK-MEL-2 melanoma, 0.285 µM with RPMI-8226 leukemia, 2.26 µM in the assay with SN12C renal and 2.25 µM in the assay on T-47D breast. For the same molecule, the TGI in the assay with 786-0 renal was greater than 30.8 µM; in the assay on ACHN renal, greater than 100 µM; in the assay on M14 melanoma, greater than 100 µM; in the assay on NCI/ADR-RES ovarian it was 7.22 µM; with IGROV1 ovarian, greater than 100 µM; in the assay on SK-MEL-2 melanoma it was 87.5 µM. The TGI is 2.38 µM in the assay with RPMI-8226 leukemia, greater than 100 µM with SN12C renal and greater than 100 µM with T-47D breast.

Consider `CN(C)CCCNC(=O)c1cc2c3ccccc3[nH]c2c2ncccc12`, for which the GI50 in the assay on MOLT-4 leukemia was 8.78 µM; with 786-0 renal it was 11.7 µM; with ACHN renal it was 5.23 µM; with NCI/ADR-RES ovarian it was 19.2 µM; with IGROV1 ovarian, 10.9 µM; with SK-MEL-2 melanoma, 13.8 µM. Also, the GI50 in the assay on RPMI-8226 leukemia was 7.42 µM; with SN12C renal, 15.6 µM; with T-47D breast it was 19.4 µM. In addition, the TGI is greater than 100 µM with MOLT-4 leukemia; 42.4 µM with 786-0 renal; 68.2 µM with ACHN renal; 66.1 µM with NCI/ADR-RES ovarian; 70.9 µM in the assay with IGROV1 ovarian; 31.7 µM in the assay with SK-MEL-2 melanoma. For the same molecule, the TGI with RPMI-8226 leukemia was 32.8 µM; in the assay on SN12C renal, greater than 100 µM; in the assay with T-47D breast it was 61.2 µM.

For `CCN(CC)c1ccc(/C=C/C(=O)c2cccc(NS(C)(=O)=O)c2)cc1`, the GI50 in the assay on MOLT-4 leukemia was 4.09 µM; in the assay with 786-0 renal it was 4.98 µM; in the assay on ACHN renal, 6.2 µM; in the assay with M14 melanoma, 4.1 µM; in the assay with IGROV1 ovarian, greater than 100 µM; with SK-MEL-2 melanoma, greater than 100 µM. Also, the GI50 is 2.34 µM in the assay with RPMI-8226 leukemia, 6.69 µM in the assay on SN12C renal and 4.29 µM with T-47D breast. Further, the TGI in the assay on MOLT-4 leukemia, with 786-0 renal, in the assay with ACHN renal, in the assay on M14 melanoma, in the assay on IGROV1 ovarian and in the assay on SK-MEL-2 melanoma was greater than 100 µM each time. The TGI was 20.8 µM with RPMI-8226 leukemia, greater than 100 µM in the assay with SN12C renal and greater than 100 µM in the assay on T-47D breast.

As to `C[C@@H]1CN(Cc2ccc(/C=C/c3n[nH]c4ccc5nc(-c6cn[nH]c6C(F)(F)F)c6c(c5c34)CCCC6)cc2)C[C@H](C)O1`, the GI50 is 2.6 µM in the assay on MOLT-4 leukemia; 4.09 µM with 786-0 renal; 2.57 µM in the assay on ACHN renal; 3.19 µM in the assay on M14 melanoma; 4.76 µM in the assay on NCI/ADR-RES ovarian; 1.33 µM with IGROV1 ovarian. In addition, the values for the GI50 in the assay with SK-MEL-2 melanoma, with SN12C renal and with T-47D breast were 13.5 µM, 2.46 µM and 6.66 µM, respectively. The TGI in the assay with MOLT-4 leukemia was found to be 23.2 µM; in the assay with 786-0 renal it was 17.5 µM; with ACHN renal, 13.7 µM; in the assay on M14 melanoma it was 14.6 µM; with NCI/ADR-RES ovarian, 19.9 µM; in the assay with IGROV1 ovarian, 10.7 µM. In addition, the TGI worked out at 33.8 µM with SK-MEL-2 melanoma, 14.9 µM with SN12C renal and 26.4 µM with T-47D breast.

On to `COc1cc(/C=C/C(=O)c2c(C)n([O-])c3cc(C)c(C)cc3[n+]2=O)cc(OC)c1OC`, for which the GI50 in the assay on MOLT-4 leukemia was 6.77 µM; in the assay on 786-0 renal, 19.2 µM; in the assay with ACHN renal it was 13.9 µM; in the assay with M14 melanoma it was 16.1 µM; in the assay with NCI/ADR-RES ovarian, 23 µM; with IGROV1 ovarian, 12.8 µM. For the same molecule, the figures for the GI50 in the assay on SK-MEL-2 melanoma, in the assay with SN12C renal and in the assay on T-47D breast were 16.4 µM, 17.5 µM and 20.5 µM, respectively. Moreover, the TGI is greater than 100 µM in the assay on MOLT-4 leukemia; 46.1 µM in the assay with 786-0 renal; 27.9 µM with ACHN renal; 60.2 µM in the assay with M14 melanoma; 56.6 µM in the assay with NCI/ADR-RES ovarian; 29.4 µM in the assay with IGROV1 ovarian. Also, the TGI was 32.9 µM in the assay with SK-MEL-2 melanoma, 42.7 µM in the assay with SN12C renal and 73.7 µM in the assay on T-47D breast.

On to `O=C(O)c1cn(C2CC2)c2cc(N3CCN(S(=O)(=O)c4ccc(Cl)c(Cl)c4)CC3)c(F)cc2c1=O`, for which the GI50 was 4 µM in the assay on MOLT-4 leukemia; 4.02 µM with 786-0 renal; 3.1 µM with ACHN renal; 4.06 µM in the assay with M14 melanoma; 4.01 µM in the assay with NCI/ADR-RES ovarian; 2.53 µM in the assay on RPMI-8226 leukemia. The GI50 with SN12C renal was 2.97 µM; with T-47D breast, 3.77 µM. Also, the TGI is greater than 100 µM in the assay with MOLT-4 leukemia; greater than 100 µM in the assay on 786-0 renal; greater than 100 µM in the assay on ACHN renal; greater than 100 µM in the assay on M14 melanoma; greater than 100 µM in the assay on NCI/ADR-RES ovarian; 7.59 µM in the assay on RPMI-8226 leukemia. Moreover, the TGI with SN12C renal and with T-47D breast was greater than 100 µM throughout.

Take `BrP(NC1CCCCCC1)(c1ccccc1)(c1ccccc1)c1ccccc1`: the TGI was 32.3 µM with 786-0 renal; 9.12 µM with ACHN renal; greater than 100 µM in the assay with M14 melanoma; greater than 100 µM with NCI/ADR-RES ovarian; 21.7 µM in the assay on IGROV1 ovarian; 8.53 µM in the assay on SK-MEL-2 melanoma. The values for the TGI in the assay on RPMI-8226 leukemia, in the assay with SN12C renal and in the assay on T-47D breast were 5.41 µM, 16.1 µM and 7.76 µM, respectively.
